According to US20250270513A1, “METHOD FOR PRODUCING CULTURED TISSUE, AND PREPARATION FOR EXTERNAL APPLICATION” (National University Corporation Ehime University, priority 2019, published 2025):

Experiments:
β-actin = experiment: Western blotting of β-actin in fibroblasts (Test Example 3-1); format: cell-based, human; details: 0, 10, 100 mg/mL trehalose in medium, 24 hours
Protocol: (§1) The cells were further DNA-stained with PI and subjected to FCM, and the proportion of each cell cycle was examined.
(§2) (3) Furthermore, proteins were extracted from the fibroblasts obtained in (1) using RIPA buffer (1% protein inhibitor (manufactured by SIGMA)+Phosphatase Inhibitor cocktail (manufactured by SIGMA)). Then, 10 μg of protein per sample was separated by SDS-PAGE by a conventional method, transferred to a PVDF membrane, and then subjected to Western blotting. Phosphorylated ERK1/2 and phosphorylated AKT were detected by ECL Prime Western Blotting Detection Reagent (manufactured by GE Healthcare), using Phospho-p44/p42 MAPK (Erk1/2) (Thr202/Tyr204) (D13.14.4E) XP Rabbit mAb (#4300, Cell Signaling) and Phospho-Akt (Ser473) antibody (#9271, manufactured by Cell Signaling Technology) as a primary antibody, and an anti-rabbit IgG antibody and an anti-mouse IgG antibody manufactured by PROMEGA were used as secondary antibodies, and visualized by Image Quant LAS4010 (manufactured by GE Healthcare).

[1] = test system: human normal skin keratinocytes on collagen gel containing pretreated NHDF; experiment: Three-dimensional cultured skin using fibroblasts pretreated with trehalose (Test Example 4); format: cell-based
Protocol: • (1) NHDF was seeded on a cell culture dish containing 10% FCS and 1% ABAM-containing DMEM medium at a cell density of 4.0×10^4 cells/cm^2. After 24 hours from seeding, at a cell density of 4.5×10^4 cells/cm^2, the medium was replaced with 1% FCS and 1% ABAM-containing DMEM medium containing 0, 30, or 100 mg/mL trehalose, and the cells were incubated at 37° C. for 24 hours. Then, a collagen gel containing 5.0×10^5 cells/ml of the obtained NHDF was prepared under the same conditions as in Test Example 1 except that trehalose was not added. • (2) According to the method of Test Example 1, the obtained NHDF-containing collagen gel was pre-cultured for 5 days, and then human normal skin keratinocytes were seeded and cultured for 2 days at 37° C. • (3) Further, according to the method of Test Example 1, gas-liquid interface culture was performed at 37° C. for 7 days using CM medium.

[2] = test system: wound with a diameter of 6 mm on the back of C57BL/6 mice; experiment: In vivo test of effect of trehalose on skin wound (Test Example 6); set-up: species or system mouse
Protocol: In order to verify an effect of trehalose on skin wounds, in vivo test using mice was performed. The method is shown below. • (1) 15 week old C57BL/6 mice were anesthetized, the back was extensively depilated, then the skin of the back was pinched and overlaid, and a wound with a diameter of 6 mm was prepared with a biopsy trepan. • (2) Wound mice were divided into 2 groups of 6 mice each, and 100 mg of an agent composed only of Vanicream (Pharmaceutical Specialties, INC) as a base was applied to a control group, and 100 mg of an agent composed of 10% by mass trehalose and Vanicream as a base was applied to a trehalose treatment group once a day. • (3) Images of each wound up to 9 days after wound formation and the area of each wound were recorded, respectively.

FGF2 mRNA = experiment: qPCR of FGF2 gene in monolayer fibroblasts (Test Example 3-2); format: cell-based, human; details: for FGF2 expression level compared to control without trehalose (vehicle): after 3 hours of culture
Protocol: • (1) NHDF was seeded on a cell culture dish containing 1% FCS and 1% ABAM-containing DMEM medium containing 0, 30, and 100 mg/mL trehalose so as to be 5.5×10^4 cells/cm^2, and cultured for 3, 24, or 48 hours. • (2) Cells under each condition were collected, and mRNA was extracted using RNeasy Mini Kit (manufactured by QIAGEN). CDNA was prepared from mRNA using iScript cDNA Synthesis kit (manufactured by B10-RAD Laboratories). The method was performed according to each manual. Next, quantitative PCR (qPCR) of FGF2 gene was performed. For the reaction, Fast Start Universal Probe Master (Rox) (Roche) and StepOnePlue Real time PCR system were used. As a primer set, TaqMan probes for FGF2 (ThermoFisher Scientific) described in Table 5 were used. GAPDH was used as a reference gene. The number of samples used in each condition was 3.

[3] = test system: fibroblasts of the dermal tissue layer of three-dimensional cultured skin; experiment: Cell proportion per cell cycle by flow cytometry (FCM), PI staining (Test Example 1); format: cell-based, human
Protocol: • (5) Of the obtained three-dimensional cultured skin, a dermal tissue layer composed of fibroblasts was separated and DNA-stained with propidium iodide (PI). Next, the proportion of fibroblasts for each cell cycle was analyzed by FCM using Cycle TEST PLUS DNA Reagent Kit (manufactured by BD).

[4] = test system: NHDF (normal human skin fibroblasts); experiment: Monolayer culture of fibroblasts, optical microscope observation (Test Example 3-1); format: cell-based; details: 24 hours monolayer
[5] = test system: AKT (Ser473 phosphorylated); experiment: Western blotting of phosphorylated AKT in fibroblasts (Test Example 3-1); format: cell-based, human; details: 0, 10, 100 mg/mL trehalose in medium, 24 hours
Protocol: as §1, §2

[6] = test system: EREG, ARG2, CCL2, IL1RN, PGF, SPP1, VEGFA, DPT and FGF2 mRNA; experiment: qPCR of genes in fibroblasts in collagen gel, 3 days (Test Example 3-4); format: cell-based, human; details: 100 mg/mL trehalose (Treha 100)
Protocol: A collagen gel containing NHDF was prepared according to the method (1) of Test Example 1. The obtained collagen gel was cultured in DMEM medium containing 0 or 100 mg/mL trehalose, 1% FCS and 1% ABAM for 3 days, and RNA was recovered from the cells. The obtained sample was subjected to the same operation as in Test Example 3-2, and qPCR for genes EREG, ARG2, CCL2, IL1RN, PGF, SPP1, VEGFA, DPT and FGF2 was performed. GAPDH was used as a reference gene.

[7] = 100 mg/mL trehalose, after 24 hours
[8] = 100 mg/mL trehalose, after 48 hours
[9] = Trehalose concentration 100 mg/mL, n = 2, averages

OC[C@H]1O[C@H](O[C@H]2O[C@H](CO)[C@@H](O)[C@H](O)[C@H]2O)[C@H](O)[C@@H](O)[C@@H]1O [trehalose, α, α-trehalose]
synthesis amount of β-actin (β-actin): increased depending on the amount of trehalose | contraction of the collagen gel ([1]; fibroblast cells pre-cultured with trehalose): not observed | enlargement of three-dimensional cultured skin in diameter compared to pre-culturing with medium containing no trehalose ([1]; fibroblasts pre-cultured with 30 mg/mL trehalose for 24 hours before collagen gel preparation): about 1.4 times | area of three-dimensional cultured skin ([1]; fibroblasts pre-cultured with 100 mg/mL trehalose for 24 hours before collagen gel preparation): enlarged to cover the entire cell culture insert | recovery of wounds compared to control group ([2]; 100 mg of agent of 10% by mass trehalose and Vanicream, applied once a day): significantly faster | day on which wound epithelialized ([2]; 10% by mass trehalose in Vanicream, once a day): 4 days | wound area ([2]; 10% by mass trehalose in Vanicream, once a day, after 1 day): remarkably reduced | difference between groups in wound area (two-way ANOVA, p<0.001) ([2]; each point of days 2 to 6, n=6 in each group): significant differences | FGF2 expression level compared to control without trehalose (vehicle) (FGF2 mRNA; 30 mg/mL trehalose): increase | expression level of FGF2 mRNA (FGF2 mRNA; 30 mg/mL trehalose, after 48 hours): slightly increased | FGF2 expression level compared to control without trehalose (vehicle) (FGF2 mRNA; 100 mg/mL trehalose): increase | FGF2 mRNA expression level compared to that at the start of the culture (FGF2 mRNA; [7]): still also increased | FGF2 mRNA expression level compared to the control (FGF2 mRNA; [7]): significantly increased | FGF2 mRNA expression level compared to that at the start of the culture (FGF2 mRNA; [8]): still also increased | FGF2 mRNA expression level compared to the control (FGF2 mRNA; [8]): significantly increased | proportions of fibroblasts in S phase and G2 phase ([3]; 100 mg/mL vs 0 mg/mL trehalose): significantly increased | Proportion of cells in cell cycle, G1 [3, 9]: 62.5% | Proportion of cells in cell cycle, G2 [3, 9]: 14.0% | Proportion of cells in cell cycle, S [3, 9]: 15.3% | increase in the number of cells ([4]; 10 mg/mL trehalose): slightly suppressed | appearance of damage to cells ([4]; 100 mg/mL trehalose): no appearance of any damage | cell morphology ([4]; 100 mg/mL trehalose): the number of spindle-shaped cells was large | increase in the number of cells ([4]; 100 mg/mL trehalose): further suppressed | phosphorylation of AKT [5]: promoted as the concentration of trehalose in the medium increases | mRNA expression levels of genes EREG, ARG2, CCL2, ILIRN, PGF, SPP1, VEGFA, DPT and FGF2 compared to vehicle [6]: significantly increased
